Test results from patent publication US20230079439A1, “Compositions and Methods for Enhancing Beta Cell Maturation, Health and Function” (THE REGENTS OF THE UNIVERSITY OF CALIFORNIA, priority 2016, published 2023).
Ends that are not written are not given here.

What was measured:
INS-1E cells [1] = test: Glucose-stimulated insulin secretion (GSIS) in INS-1E cells; type: cell-based, rat
Procedure: FIG. 3, comprising FIG. 3A through FIG. 3D, depicts the evaluation of the biological activity of HSA-112 in INS-1E cells. FIG. 3A depicts a dose-response analysis of the effect of HSA-112 on the rate of insulin secretion in INS-1E cells. The INS-1E cells were grown and treated with increasing doses of HSA-112 for 24 h, as described in Methods. Subsequently, cells were mixed with different concentrations of HSA-112, as indicated in the graph (red columns), PEG2000 (green columns), and free peptide (blue columns) and were seeded in 12-well plates. After 24 h the cells were taken to a GSIS in the presence of 2.5 mM (weak color bars) or 16.7 mM (strong color bars) glucose. FIG. 3B depicts the time-course analysis of the effect of HSA-112 on the rate of insulin secretion in INS-1E cells. The INS-1E cells were prepared for the experiment as described above with 50 μM of HSA-112, PEG2000, or free peptide. After incubation, as indicated in the graph, the cells were taken to a GSIS as described above. FIG. 3C depicts the cell protective effect of HSA-112 under oxidative stress conditions. Cells were prepared for the experiment as described in Methods. Trolox was used as a positive control at a concentration of 100 μM. The oxidative stress was induced in the tissue culture, as described in Methods. Standard MTT analysis (also described in Methods) was used for evaluating the effect of HSA-112 on cell viability. FIG. 3D depicts INS-1E cell proliferation. Cells were prepared for the experiment as described above. After 24 h the cells were colored by trypan blue and counted as described in Methods *p<0.05, n=6. MEAN±SE.
FIG. 7, comprising FIG. 7A through FIG. 7G, depicts the evaluation of the biological activity of HSA-28P in INS-1E cells. FIG. 7A depicts dose-response analysis of the effect of HSA-28P on the rate of insulin secretion in INS-1E cells. The INS-1E cells were grown and trypsinized as described in Methods. Subsequently, cells were mixed with the indicated concentrations of HSA-28P (red columns), non-relevant peptide nanoparticles (NRPNP, green columns), and naked nanoparticles (NP, blue columns) and were seeded in 12-well plates. After 24 h the cells were taken to a GSIS in the presence of 2.5 mM (weak color bars) or 16.7 mM (strong color bars) glucose. FIG. 7B depicts time-course analysis of the effect of HSA-28P on the rate of insulin secretion in INS-1E cells. The INS-1E cells were prepared for the experiment as described above with 1.34 μM of both HSA-28P or NRPNP, and 0.76 μg/ml of NP. After incubation for the time indicated in the graph, the cells were taken to a GSIS as described in Methods. FIG. 7C depicts the measurement of insulin content. The RIA-assay was performed for INS-1E lysates. FIG. 7D depicts the Effect of HSA-28P on the cells viability under oxidative stress conditions. INS-1E cells were incubated for 24 h with a medium supplemented with HSA-28P (3 μM), or HSA-28P1/2 (1.5 μM), or NPs covered by phantom random peptide (PPNP, 3 μM), or NP (0.76 μg/ml), or HSA-28 (3 μM) and trolox, as a positive antioxidant control (1 mM). After the incubation time, 50 mU/ml of glucose oxidase (GO) was added for an additional 1.15 h. Upon completion of the experiments, a standard MTT assay was conducted as described in Methods. Cell viability is presented as a percentage in comparison to non-treated cells. FIG. 7E depicts the effect of HSA-28P on the cell proliferation rate. Experiments were conducted on INS-1E cells that were seeded in 6-well plates. INS-1E cells were treated as described in Panel D. Cells were detached by trypsin and counted as described in Methods and then were visualized with a Cells Sense Live Imaging microscope. FIG. 7F depicts light microscope images of untreated cells. FIG. 7G depicts light microscope images of cells that were treated with HSA-28P. *p<0.05, n=3. MEAN±SE. […]

INS-1E cells [2] = test: Insulin secretion of INS-1E cells after 5 h incubation with peptidomimetic agent; type: cell-based, rat
Procedure: FIG. 22, comprising FIG. 22A through FIG. 22C, depicts experimental results of incubation of INS1E cells with peptidomimetic agent. A peptidomimetic agent was designed to mimic neuroligin's binding site for neurexin. Monomers and dimers had no effect on insulin secretion. Multiple dimers were conjugated to PEG-2000 to simulate clustering (reagent HSA-112). Dimers were also clustered on nanoparticles (HSA-637). FIG. 22A depicts INS-1E cells were incubated for 5 h with HSA-112 (blue columns) or HSA-637 (purple) at different concentrations or with vehicle alone (black), washed, and then tested for insulin secretion at 3 mM glucose (striped columns) or at 20 mM glucose (solid columns). […] FIG. 22B depicts a time course: insulin secretion was analyzed after the number of hours indicated following a 5 h incubation with 100 μM HSA-112 (blue), 500 nM HSA-637 (purple) or vehicle alone (black). Incubations were with 3 mM glucose (striped columns) or 20 mM glucose (solid columns). FIG. 22C depicts microscopy where INS-1E cells were incubated with HSA-637 conjugated to a fluorescent dye (Cy5, red) and then washed. Membranes were stained with Alexa Fluor 488 (green). For better visualization, microscopy was in hypotonic saline causing the INS-1E cells to swell and become more rounded.

Substance: HSA-112: HSA-28 dimer formed by bridging two HSA-28 monomers via amide bond formation with active ester PEG2,000 (QQGEFLNYD-NH2; not fully specified (N-terminus); also: dimer of two HSA-28 monomers bridged via amide bonds with active ester PEG2000)
- duration of the increase in insulin secretion (INS-1E cells [1]; 50 μM): 24 h
- time after which a significant increase in insulin secretion was induced (INS-1E cells [1]; 50 μM): 6 h
- time of maximal stimulatory effect (INS-1E cells [1]; 50 μM): 18 h
- maximal stimulatory effect on GSIS parameters (INS-1E cells [1]; 50 μM, after 18 h): twofold elevation of GSIS parameters
- effect on GSIS (INS-1E cells [1]; INS-1E cells, 2.5 mM or 16.7 mM glucose): dose-dependently increased GSIS
- concentration that significantly increased glucose-stimulated insulin secretion (INS-1E cells [2]; 5 h incubation, 20 mM glucose, p<0.05): ≥ 20 µM
- effect on insulin secretion (INS-1E cells [2]; INS-1 β cells): increased insulin secretion in a dose-dependent manner
